Legend:
[1] = tested on: Kanzawa spider mite (Tetranychus kanzawai kishida) which are resistant to Compound A; assay: Miticidal effect against female imagines of Kanzawa spider mite resistant to Compound A (leaf disk spray test); details: for LC50 (ppm): single active ingredient, female imago, Compound A-resistant colony, mortality two days after spray treatment, probit method
Protocol: Round leaf disks (2 cm diameter) are cut out of a first leaf of kidney bean by using a leaf punch and 4 sheets of the leaf disks are placed on wet sanitary cotton on a PVC cup of 8 cm diameter.
Each PVC cup is sprayed with 3.5 ml of the test solution by using a rotary spray tower (manufactured by Mizuho Scientific Co., Ltd.) and stored in a constant temperature chamber held at 25±° C. (32 individuals are tested per concentration, 4-5 concentrations are evaluated per formulation and 2 performances are repeated). Two days after treatment, the number of living and dead female imagines of Kanzawa spider mite (Tetranychus kanzawai kishida) on the leaf disk is investigated and the mortality (%) is calculated according to the formula shown hereinbelow. From these mortality data, the LC50 values are obtained by conventional probit method. [formula]
For the above-mentioned values larger than 100, the larger value indicates a stronger synergistic action. For the value equal to 100, an additive action is indicated. For the values less than 100, the lesser value indicates a larger antagonistic action. A more detailed description of the calculation of the co-toxicity coefficient by the above-mentioned Sun and Johnson's method is the following. […] [formula]

[2] = tested on: susceptible strain of spider mite; assay: Effect of Compound A against a susceptible strain of spider mite; type: in vivo; details: not mentioned in the table

SMILES	LC50 (ppm) [1]	resistance against Compound A ([1]; resistant strain versus susceptible strain, LC50 values)	LC50 value [2]
CC1(C)[C@H](C(=O)O[C@@H](C#N)c2cccc(Oc3ccccc3)c2)[C@@H]1/C=C(\Cl)C(F)(F)F (racemic) [Cyhalothrin, (RS)-α-cyano-3-phenoxybenzyl (Z)-(1RS,3RS)-3-(2-chloro-3,3,3-trifluoropropenyl)-2,2-dimethylcyclopropanecarboxylate]	590 ppm		
CC1(C)C(C=C(Cl)Cl)C1C(=O)OC(C#N)c1ccc(F)c(Oc2ccccc2)c1 (racemic) [Cyfluthrin, (RS)-α-cyano4-fluoro-3-phenoxybenzyl (1RS,3RS; 1RS,3SR)-3-(2,2-dichlorovinyl)-2,2-dimethylcyclopropanecarboxylate]	1500 ppm		
CCOc1ccc(C(C)(C)COCc2cccc(Oc3ccccc3)c2)cc1 [Ethofenprox, 2-(4-ethoxyphenyl)-2-methylpropyl 3-phenoxybenzyl ether]	620 ppm		
CC1(C)C(C=C(Cl)Cl)C1C(=O)OCc1cccc(Oc2ccccc2)c1 (stereo not drawn) [Permethrin, 3-phenoxybenzyl (1RS,3RS; 1RS,3RS)-3-(2,2-dichlorovinyl)-2,2-dimethylcyclopropanecarboxylate]	440 ppm		
CC(C)[C@H](Nc1ccc(C(F)(F)F)cc1Cl)C(=O)OC(C#N)c1cccc(Oc2ccccc2)c1 (stereo partly drawn) [Fluvalinate, (RS)-α-cyano-3-phenoxy-benzyl N-(2-chloro-α,α,α,α-trifluoro-p-tolyl)-D-valinate]	180 ppm		
CCOCn1c(-c2ccc(Cl)cc2)c(C#N)c(Br)c1C(F)(F)F [Compound A, 4-bromo-2-(4-chlorophenyl)-1-(ethoxymethyl)-5-(trifluoromethyl)-pyrrole-3-carbonitrile]	1500 ppm	~300 fold	about 5 ppm
CC1(C)C(C=C(Cl)Cl)C1C(=O)OC(C#N)c1cccc(Oc2ccccc2)c1 (racemic) [Cypermethrin, (RS)-α-cyano-3-phenoxybenzyl (1RS,3RS,1RS,3RS)-3-(2,2-dichlorovinyl)-2,2-dimethylcyclopro-panecarboxylate]	2500 ppm		
Cc1c(COC(=O)[C@@H]2[C@H](/C=C(\Cl)C(F)(F)F)C2(C)C)cccc1-c1ccccc1 (racemic) [Bifenthrin, 2-methylbiphenyl-3-ylmethyl (Z)-(1RS,3RS)-3-(2-chloro-3,3,3-trifluoroprop-1-enyl)-2,2-dimethylcyclopropanecar-boxylate]	20 ppm		
CC1(C)C(C(=O)OC(C#N)c2cccc(Oc3ccccc3)c2)C1(C)C (racemic) [Fenpropathrin, (RS)-α-cyano-3-phenoxybenzyl 2,2,3,3-tetramethyl-cyclopropanecarboxylate]	290 ppm		

Source: patent US6514510B1, “Insecticidal and miticidal compositions” (BASF Aktiengesellschaft, priority 1996, dated 2003)
